Measurements reported in patent US8785457B2 (Cellzome Limited, priority 2009, dated 2014).
Like-named read-outs stand apart in the source and are kept apart here.

Target: T1, mTOR (Homo sapiens, UniProt P42345)
T1 construct: endogenous in cells; host or cells: Jurkat, clone E6-1 (ATCC TIB-152) cell lysate
Assay: mTOR kinobeads assay (competitive binding in Jurkat cell lysate, immunodetection)
Procedure, shortened: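 IC50 derived from dose-response curves of mTOR captured on immobilized phenylmorpholin-chromen beads, detected by antibody dot blot with infrared fluorescence.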

[1] = kinobeads assay, Table 4, read-out: Inhibition values (IC50) mTor
[2] = kinobeads assay, Table 6, read-out: Inhibition values (IC50) mTOR
[3] = Further Kinobeads Data, read-out: mTor

SMILES | IC50 [1] | IC50 [2] | IC50 [3]
CNC(=O)Nc1ccc(-c2nc3c(c(N4CCOC[C@@H]4C)n2)CN(CC2CC2)C3)cc1 [Example 47, (S)-1-(4-(6-(cyclopropylmethyl)-4-(3-methylmorpholino)-6,7-dihydro-5H-pyrrolo[3,4-d]pyrimidin-2-yl)phenyl)-3-methylurea] | < 100 nM | < 100 nM | –
CCNC(=O)Nc1ccc(-c2nc3c(c(N4CCOC[C@@H]4C)n2)CN(C(=O)OC(C)(C)C)C3)c(F)c1 [Example 153, (S)-tert-butyl 2-(4-(3-ethylureido)-2-fluorophenyl)-4-(3-methylmorpholino)-5H-pyrrolo[3,4-d]pyrimidine-6-(7H)-carboxylate] | – | – | < 100 nM
CCNC(=O)Nc1ccc(-c2nc3c(c(N4CCOC[C@@H]4C)n2)CN(CC2CC2)C3)cc1 [Example 28, (S)-1-(4-(6-(cyclopropylmethyl)-4-(3-methylmorpholino)-6,7-dihydro-5H-pyrrolo[3,4-d]pyrimidin-2-yl)phenyl)-3-ethylurea] | < 100 nM | < 100 nM | –
CCCNC(=O)Nc1ccc(-c2nc3c(c(N4CCOC[C@@H]4C)n2)CN(CC2CC2)C3)cc1 [Example 49, (S)-1-(4-(6-(cyclopropylmethyl)-4-(3-methylmorpholino)-6,7-dihydro-5H-pyrrolo[3,4-d]pyrimidin-2-yl)phenyl)-3-propylurea] | 100 to 1000 nM | 100 to 1000 nM | –
CCNC(=O)Nc1ccc(-c2nc3c(c(N4CCOC[C@@H]4C)n2)CN(C=O)C3)cc1 [Example 8, (S)-1-ethyl-3-(4-(6-formyl-4-(3-methylmorpholino)-6,7-dihydro-5H-pyrrolo[3,4-d]pyrimidin-2-yl)phenyl)urea] | < 100 nM | < 100 nM | –
CC(C)NC(=O)Nc1ccc(-c2nc3c(c(N4CCOC[C@@H]4C)n2)CN(CC2CC2)C3)cc1 [Example 50, (S)-1-(4-(6-(cyclopropylmethyl)-4-(3-methylmorpholino)-6,7-dihydro-5H-pyrrolo[3,4-d]pyrimidin-2-yl)phenyl)-3-isopropylurea] | 100 to 1000 nM | 100 to 1000 nM | –
C[C@H]1COCCN1c1nc(-c2ccc(NC(=O)Nc3ccc(F)cc3)cc2)nc2c1CN(C)C2 [Example 52, (S)-1-(4-fluorophenyl)-3-(4-(6-methyl-4-(3-methylmorpholino)-6,7-dihydro-5H-pyrrolo[3,4-d]pyrimidin-2-yl)phenyl)urea] | 100 to 1000 nM | 100 to 1000 nM | –
C[C@H]1COCCN1c1nc(-c2ccc(NC(=O)NC3CC3)cc2)nc2c1CN(C(=O)C(C)(C)C)C2 [Example 45, (S)-1-cyclopropyl-3-(4-(4-(3-methylmorpholino)-6-pivaloyl-6,7-dihydro-5H-pyrrolo[3,4-d]pyrimidin-2-yl)phenyl)urea] | 100 to 1000 nM | 100 to 1000 nM | –
C[C@H]1COCCN1c1nc(-c2ccc(NC(N)=O)cc2)nc2c1CN(CC1CC1)C2 [Example 48, (S)-1-(4-(6-(cyclopropylmethyl)-4-(3-methylmorpholino)-6,7-dihydro-5H-pyrrolo[3,4-d]pyrimidin-2-yl)phenyl)urea] | 100 to 1000 nM | 100 to 1000 nM | –
C[C@H]1COCCN1c1nc(-c2ccc(NC(=O)NC3CC3)cc2)nc2c1CN(C(=O)C1CC1)C2 [Example 17, (S)-1-(4-(6-(cyclopropanecarbonyl)-4-(3-methylmorpholino)-6,7-dihydro-5H-pyrrolo[3,4-d]pyrimidin-2-yl)phenyl)-3-cyclopropylurea] | < 100 nM | < 100 nM | –
CCNC(=O)Nc1ccc(-c2nc3c(c(N4CCOC[C@@H]4C)n2)CN(C(C)=O)C3)cc1 [Example 18, (S)-1-(4-(6-acetyl-4-(3-methylmorpholino)-6,7-dihydro-5H-pyrrolo[3,4-d]pyrimidin-2-yl)phenyl)-3-ethylurea] | < 100 nM | < 100 nM | –
CCNC(=O)Nc1cc(F)c(-c2nc3c(c(N4CCOC[C@@H]4C)n2)CN(C(=O)OCC)C3)cc1F [Example 141, (S)-ethyl 2-(4-(3-ethylureido)-2,5-difluorophenyl)-4-(3-methylmorpholino)-5H-pyrrolo[3,4-d]pyrimidine-6(7H)-carboxylate] | – | – | 1000 to 10000 nM
CC(C)C(=O)N1Cc2nc(-c3ccc(NC(=O)NC4CC4)cc3)nc(N3CCOC[C@@H]3C)c2C1 [Example 44, (S)-1-cyclopropyl-3-(4-(6-isobutyryl-4-(3-methylmorpholino)-6,7-dihydro-5H-pyrrolo[3,4-d]pyrimidin-2-yl)phenyl)urea] | < 100 nM | < 100 nM | –
CCNC(=O)Nc1ccc(-c2nc3c(c(N4CCOC[C@@H]4C)n2)CN(S(C)(=O)=O)C3)cc1 [Example 32, (S)-1-ethyl-3-(4-(4-(3-methylmorpholino)-6-(methylsulfonyl)-6,7-dihydro-5H-pyrrolo[3,4-d]pyrimidin-2-yl)phenyl)urea] | < 100 nM | < 100 nM | –
CCNC(=O)Nc1ccc(-c2nc3c(c(N4CCOC[C@@H]4C)n2)CNCC3)cc1 [Example 12, (S)-1-ethyl-3-(4-(4-(3-methylmorpholino)-5,6,7,8-tetrahydropyrido[4,3-d]pyrimidin-2-yl)phenyl)urea] | 100 to 1000 nM | 100 to 1000 nM | –
CNC(=O)Nc1ccc(-c2nc3c(c(N4CCOC[C@@H]4C)n2)CCNC3)cc1 [Example 16, (S)-1-methyl-3-(4-(4-(3-methylmorpholino)-5,6,7,8-tetrahydropyrido[3,4-d]pyrimidin-2-yl)phenyl)urea] | < 100 nM | < 100 nM | –
CCOC(=O)N1Cc2nc(-c3ccc(NC(=O)NCCO)cc3F)nc(N3CCOC[C@@H]3C)c2C1 [Example 167, (S)-Ethyl 2-(2-fluoro-4-(3-(2-hydroxyethyl)ureido)phenyl)-4-(3-methylmorpholino)-5H-pyrrolo[3,4-d]pyrimidine-6(7H)-carboxylate] | – | – | < 100 nM
CCOC(=O)N1Cc2nc(-c3ccc(NC(=O)NCCF)cc3F)nc(N3CCOC[C@@H]3C)c2C1 [Example 168, (S)-ethyl 2-(2-fluoro-4-(3-(2-fluoroethyl)ureido)phenyl)-4-(3-methylmorpholino)-5H-pyrrolo[3,4-d]pyrimidine-6(7H)-carboxylate] | – | – | < 100 nM
CCNC(=O)Nc1ccc(-c2nc3c(c(N4CCOC[C@@H]4C)n2)CN(CC)C3)cc1 [Example 39, (S)-1-ethyl-3-(4-(6-ethyl-4-(3-methylmorpholino)-6,7-dihydro-5H-pyrrolo[3,4-d]pyrimidin-2-yl)phenyl)urea] | < 100 nM | < 100 nM | –
CCNC(=O)Nc1ccc(-c2nc3c(c(N4CCOC[C@@H]4C)n2)CCNC3)cc1 [Example 13, (S)-1-ethyl-3-(4-(4-(3-methylmorpholino)-5,6,7,8-tetrahydropyrido[3,4-d]pyrimidin-2yl)phenyl)urea] | < 100 nM | < 100 nM | –

Second part, the compound after the results:

IC50 [1] | IC50 [2] | IC50 [3] | SMILES
– | – | < 100 nM | COC(=O)N1Cc2nc(-c3ccc(NC(=O)NCCO)cc3F)nc(N3CCOC[C@@H]3C)c2C1 [Example 181, (S)-methyl 2-(2-fluoro-4-(3-(2-hydroxyethyl)ureido)phenyl)-4-(3-methylmorpholino)-5H-pyrrolo[3,4-d]pyrimidine-6(7H)-carboxylate]
– | – | < 100 nM | C[C@H]1COCCN1c1nc(-c2ccc(NC(=O)NC3CC3)cc2F)nc2c1CCNC2 [Example 163, (S)-1-cyclopropyl-3-(3-fluoro-4-(4-(3-methylmorpholino)-5,6,7,8-tetrahydropyrido[3,4-d]pyrimidin-2-yl)phenyl)urea]
– | – | < 100 nM | CC(C)N1Cc2nc(-c3ccc(NC(=O)NCCF)cc3F)nc(N3CCOC[C@@H]3C)c2C1 [Example 186, (S)-1-(3-fluoro-4-(6-isopropyl-4-(3-methylmorpholino)-6,7-dihydro-5H-pyrrolo[3,4-d]pyrimidin-2-yl)phenyl)-3-(2-fluoroethyl)urea]
– | – | < 100 nM | CCNC(=O)Nc1ccc(-c2nc3c(c(N4CCOC[C@@H]4C)n2)CN(C)C3)c(F)c1 [Example 160, (S)-1-ethyl-3-(3-fluoro-4-(6-methyl-4-(3-methylmorpholino)-6,7-dihydro-5H-pyrrolo[3,4-d]pyrimidin-2-yl)phenyl)urea]
< 100 nM | < 100 nM | – | CC(=O)N1Cc2nc(-c3ccc(NC(=O)NC4CC4)cc3)nc(N3CCOC[C@@H]3C)c2C1 [Example 20, (S)-1-(4-(6-acetyl-4-(3-methylmorpholino)-6,7-dihydro-5H-pyrrolo[3,4-d]pyrimidin-2-yl)phenyl)-3-cyclopropylurea]
– | – | 100 to 1000 nM | COC(=O)N1Cc2nc(-c3ccc(NC(=O)NCCF)cc3F)nc(N3CCOC[C@@H]3C)c2C1 [Example 183, (S)-methyl 2-(2-fluoro-4-(3-(2-fluoroethyl)ureido)phenyl)-4-(3-methylmorpholino)-5H-pyrrolo[3,4-d]pyrimidine-6(7H)-carboxylate]
– | – | < 100 nM | COC(=O)N1Cc2nc(-c3ccc(NC(=O)NC4CC4)cc3F)nc(N3CCOC[C@H]3C)c2C1 [Example 180, (R)-methyl 2-(4-(3-cyclopropylureido)-2-fluorophenyl)-4-(3-methylmorpholino)-5H-pyrrolo[3,4-d]pyrimidine-6(7H)-carboxylate]
< 100 nM | < 100 nM | – | CCN1Cc2nc(-c3ccc(NC(=O)NC4CC4)cc3)nc(N3CCOC[C@@H]3C)c2C1 [Example 36, (S)-1-cyclopropyl-3-(4-(6-ethyl-4-(3-methylmorpholino)-6,7-dihydro-5H-pyrrolo[3,4-d]pyrimidin-2-yl)phenyl)urea]
– | – | < 100 nM | C[C@H]1COCCN1c1nc(-c2ccc(NC(=O)NC3CC3)cc2F)nc2c1CN(S(C)(=O)=O)C2 [Example 177, (S)-1-cyclopropyl-3-(3-fluoro-4-(4-(3-methylmorpholino)-6-(methylsulfonyl)-6,7-dihydro-5H-pyrrolo[3,4-d]pyrimidin-2-yl)phenyl)urea]
– | – | < 100 nM | C[C@H]1COCCN1c1nc(-c2ccc(NC(=O)NC3CC3)cc2F)nc2c1CN(C)C2 [Example 147, (S)-1-cyclopropyl-3-(3-fluoro-4-(6-methyl-4-(3-methylmorpholino)-6,7-dihydro-5H-pyrrolo[3,4-d]pyrimidin-2-yl)phenyl)urea]
